Patent US7772241B2, “Variolin derivatives and their use as antitumor agents” (Pharma Mar S.A., priority 2001, dated 2010)
Read-outs that look alike come from different tables or passages of the source.

Experiments:
[1] = test system: DU-145; test: Inhibition of cells growth by colorimetric (SRB) assay, DU-145; settings: for GI50: read-out: GI50 DU-145
Procedure, shortened: (§1)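 Human tumour cells seeded at 5×10^3/well in RPMI 1640 10% FBS, attached 18 h, then exposed 48 h to samples at 10 to 10^−8 μg/ml in DMSO/EtOH/PBS (0.5:0.5:99). Growth read by SRB staining after TCA fixation, OD 490 nm, triplicate wells; GI, TGI and LC derived.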

[2] = test system: IGROV-ET; test: Inhibition of cells growth by colorimetric (SRB) assay, IGROV-ET; settings: SRB assay, 48 hours exposure; for GI50: read-out: GI50 IGROV-ET; for CC50: read-out: LC50 IGROV-ET
Procedure, shortened: as §1

[3] = test system: PANC-1; test: Inhibition of cells growth by colorimetric (SRB) assay, PANC-1; settings: SRB assay, 48 hours exposure; for GI50: read-out: GI50 PANC-1
Procedure, shortened: as §1

[4] = test system: A-549; test: Inhibition of cells growth by colorimetric (SRB) assay, A-549; settings: SRB assay, 48 hours exposure; for GI50: read-out: GI50 A-549; for CC50: read-out: LC50 A-549
Procedure, shortened: as §1

[5] = test system: HMEC1; test: Inhibition of cells growth by colorimetric (SRB) assay, HMEC1; settings: SRB assay, 48 hours exposure; for TGI H-MEC-1: in M (unit assumed); for GI50: read-out: GI50 H-MEC-1; for CC50: read-out: LC50 H-MEC-1
Text: (§2) The finality of these assays is to interrupt the growth of a “in vitro” tumor cell culture by means a continued exhibition of the cells to the sample to be testing.
(§3) This form of the assay employs 96 well cell culture microplates of 9 mm diameter (Faircloth, 1988; Mosmann, 1983). Most of the cell lines are obtained from American Type Culture Collection (ATCC) derived from different human cancer types.
(§4) Cells are maintained in RPMI 1640 10% FBS, supplemented with 0.1 g/l penicillin and 0.1 g/l streptomycin sulphate and then incubated at 37° C., 5% CO2 and 98% humidity. For the experiments, cells were harvested from subconfluent cultures using trypsin and resuspended in fresh medium before plating.
(§5) Cells are seeded in 96 well microtiter plates, at 5×10^3 cells per well in aliquots of 195 μl medium, and they are allowed to attach to the plate surface by growing in drug free medium for 18 hours. Afterward, samples are added in aliquots of 5 μl in a ranging from 10 to 10^−8 μg/ml, dissolved in DMSO/EtOH/PBS (0.5:0.5:99). After 48 hours exposure, the antitumor effect are measured by the SRB methodology: cells are fixed by adding 50 μl of cold 50% (wt/vol) trichloroacetic acid (TCA) and incubating for 60 minutes at 4° C. Plates are washed with deionized water and dried. One hundred μl of SRB solution (0.4% wt/vol in 1% acetic acid) is added to each microtiter well and incubated for 10 minutes at room temperature. Unbound SRB is removed by washing with 1% acetic acid. Plates are air dried and bound stain is solubilized with Tris buffer. Optical densities are read on a automated spectrophotometric plate reader at a single wavelength of 490 nm.
(§6) The values for mean +/−SD of data from triplicate wells are calculated. Some parameters for cellular responses can be calculated: GI=growth inhibition, TGI=total growth inhibition (cytostatic effect) and LC=cell killing (cytotoxic effect).

[6] = test system: SK-BR-3; test: Inhibition of cells growth by colorimetric (SRB) assay, SK-BR-3; settings: SRB assay, 48 hours exposure; for GI50: read-out: GI50 SK-BR-3; for CC50: read-out: LC50 SK-BR-3
Text: as §2, §3, §4, §5, §6

[7] = test system: IGROV-1; test: Inhibition of cells growth by colorimetric (SRB) assay, IGROV-1; settings: SRB assay, 48 hours exposure; for GI50: read-out: GI50 IGROV
Procedure, shortened: as §1

[8] = test system: K-562; test: Inhibition of cells growth by colorimetric (SRB) assay, K-562; settings: SRB assay, 48 hours exposure; for GI50: read-out: GI50 K-562; for CC50: read-out: LC50 K-562
Procedure, shortened: as §1

[9] = test system: SK-OV-3; test: Inhibition of cells growth by colorimetric (SRB) assay, SK-OV-3; settings: SRB assay, 48 hours exposure; for GI50: read-out: GI50 SKOV-3; for CC50: read-out: LC50 SKOV-3
Procedure, shortened: as §1

[10] = test system: SK-MEL-28; test: Inhibition of cells growth by colorimetric (SRB) assay, SK-MEL-28; settings: SRB assay, 48 hours exposure; for GI50: read-out: GI50 MEL-28; for CC50: read-out: LC50 MEL-28
Procedure, shortened: as §1

[11] = test system: LNCaP; test: Inhibition of cells growth by colorimetric (SRB) assay, LNCaP; settings: SRB assay, 48 hours exposure; for GI50: read-out: GI50 LN-caP; for CC50: read-out: LC50 LN-caP
Procedure, shortened: as §1

[12] = test system: LoVo-Dox; test: Inhibition of cells growth by colorimetric (SRB) assay, LoVo-Dox; settings: SRB assay, 48 hours exposure; for GI50: read-out: GI50 LOVO-DOX
Procedure, shortened: as §1

[13] = test system: HT-29; test: Inhibition of cells growth by colorimetric (SRB) assay, HT-29; settings: SRB assay, 48 hours exposure; for GI50: read-out: GI50 HT-29
Procedure, shortened: as §1

[14] = test system: LoVo; test: Inhibition of cells growth by colorimetric (SRB) assay, LoVo; settings: SRB assay, 48 hours exposure; for GI50: read-out: GI50 LOVO; for CC50: read-out: LC50 LOVO
Procedure, shortened: as §1

SMILES: Nc1nccc(-c2c3cc4ccccc4nc3n3c(N)nccc23)n1 [Compound 19a]
- TGI DU-145 ([1]; SRB assay, 48 hours exposure): 7.94E−07
- GI50 ([1]; SRB assay, 48 hours exposure): 3.05 nM
- CC50 ([1]; read-out: LC50 DU-145, SRB assay, 48 hours exposure): 3790 nM
- TGI IGROV-ET [2]: 4.98E−06
- GI50 [2]: 1410 nM
- CC50 [2]: 14500 nM
- TGI PANC-1 [3]: 1.41E−05
- GI50 [3]: 3450 nM
- TGI A-549 [4]: 7.64E−06
- GI50 [4]: 3240 nM
- CC50 [4]: 18000 nM
- TGI H-MEC-1 [5]: 6.72E−07
- GI50 [5]: 123 nM
- CC50 [5]: 3820 nM
- TGI SK-BR-3 [6]: 1.68E−06
- GI50 [6]: 477 nM
- CC50 [6]: 8580 nM
- TGI IGROV [7]: 9.56E−06
- GI50 [7]: 1850 nM
- TGI K-562 [8]: 6.42E−06
- GI50 [8]: 1780 nM
- CC50 [8]: 25000 nM
- TGI SKOV-3 [9]: 4.67E−06
- GI50 [9]: 1140 nM
- CC50 [9]: 21800 nM
- TGI MEL-28 [10]: 5.16E−06
- GI50 [10]: 1460 nM
- CC50 [10]: 13100 nM
- TGI LN-caP [11]: 2.18E−06
- GI50 [11]: 736 nM
- CC50 [11]: 22500 nM
- TGI LOVO-DOX [12]: 7.51E−06
- GI50 [12]: 1030 nM
- TGI HT-29 [13]: 3.05E−05
- GI50 [13]: 1940 nM
- TGI LOVO [14]: 2.74E−06
- GI50 [14]: 467 nM
- CC50 [14]: 11100 nM

SMILES: Cc1ccc2c(-c3ccnc(N)n3)c3ccnc(N)n3c2n1 [Compound 24]
- CC50 ([1]; Homo sapiens, DU-145, 48 h, read-out: LC50 DU-145, SRB assay, 48 hours exposure): 15600 nM
- TGI DU-145 ([1]; SRB assay, 48 hours exposure): 1.91E−06
- GI50 ([1]; SRB assay, 48 hours exposure): 831 nM
- TGI IGROV-ET [2]: 7.11E−06
- GI50 [2]: 1010 nM
- CC50 [2]: ≥ 34300 nM
- TGI PANC-1 [3]: 2.06E−05
- GI50 [3]: 3880 nM
- CC50 ([3]; read-out: LC50 PANC-1): ≥ 34300 nM
- TGI A-549 [4]: 6.87E−06
- GI50 [4]: 1380 nM
- CC50 [4]: 17500 nM
- TGI H-MEC-1 [5]: 7.86E−07
- GI50 [5]: 247 nM
- CC50 [5]: 2670 nM
- TGI SK-BR-3 [6]: 4.77E−06
- GI50 [6]: 1040 nM
- CC50 [6]: 10400 nM
- TGI IGROV [7]: 6.38E−06
- GI50 [7]: 995 nM
- CC50 ([7]; read-out: LC50 IGROV): 23000 nM
- TGI K-562 [8]: 7.35E−06
- GI50 [8]: 1620 nM
- CC50 [8]: 22200 nM
- TGI SKOV-3 [9]: 1.00E−05
- GI50 [9]: 1390 nM
- CC50 [9]: ≥ 34300 nM
- TGI MEL-28 [10]: 3.43E−06
- GI50 [10]: 721 nM
- CC50 [10]: 12600 nM
- TGI LN-caP [11]: 7.24E−07
- GI50 [11]: 174 nM
- CC50 [11]: ≥ 34300 nM
- TGI LOVO-DOX [12]: 3.43E−06
- GI50 [12]: 642 nM
- CC50 ([12]; read-out: LC50 LOVO-DOX): ≥ 34300 nM
- TGI HT-29 [13]: 3.43E−05
- GI50 [13]: 16400 nM
- CC50 ([13]; read-out: LC50 HT-29): ≥ 34300 nM
- TGI LOVO [14]: 1.22E−06
- GI50 [14]: 325 nM
- CC50 [14]: > 34300 nM
